The test system of data set [1] is target transcript mRNA in A549 cells. Description: Level of mRNA of target transcript in A549 cells by quantitative RT-PCR (Tables 12 and 13). Type of data set: cell-based, human. The conditions noted are these: 24 h post-transfection; for mRNA knockdown of transporter gene target transcript, 0.1 nM: 0.1 nM siRNA; for mRNA knockdown of transporter gene target transcript, 1 nM: 1 nM siRNA; for mRNA knockdown of transporter gene target transcript, 10 nM: 10 nM siRNA. In outline: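 Target mRNA was measured by SYBR Green quantitative RT-PCR using random-primed cDNA, normalised to HPRT and Lamin. Samples came from A549 cells 24 h post-transfection with 0.1, 1.0 or 10 nM siRNA.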

The subject of the next data set is A549 cells. Description: Growth inhibition of siRNA-transfected A549 cells, SYBR Green I DNA content. Format: cell-based, human. The settings on record: A549 cells, 10 nM siRNA, DNA content 96 hours after transfection, transporter gene targets. The method in brief:
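Growth read-out: cellular DNA quantified with SYBR Green I (485/535 nm) 96 h after transfection, cells frozen, thawed and lysed in PBS/1% Triton X-100, pH 7. Cells (A549, 5×10^3 cells/cm^2) received 10 nM siRNA by RNAiMAX; non-specific siRNA served as control; triplicate wells averaged.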

With “SEQ ID NO: 4905: siRNA targeting SLC7A11 (xCT) (chain 1 ATTATGAGGAGTTCCACCCAGACTC; chain 2 AUUAUGAGGAGUUCCACCCAGACUC; Antisense strand given in DNA and RNA notation, chemistry not given here; one strand in two spellings)”, in data set [1], the “mRNA knockdown of transporter gene target transcript, 0.1 nM” value (shortened to “mRNA knockdown … 0.1 nM”) is on record as “++ (70-90% mRNA knockdown)” and the “mRNA knockdown of transporter gene target transcript, 1 nM” value was “++ (70-90% mRNA knockdown)”. The “Growth Inhibition in A549 cells by 10 nM siRNA” value (shortened to “Growth Inhibition in A549 cells”) in the data set with A549 cells is “++ (inhibits by at least 75%)”.

Consider “SEQ ID NO: 4906: siRNA targeting SLC7A11 (xCT) (chain 1 TAATGAGAAATTTCCCAGTAGCCGC; chain 2 UAAUGAGAAAUUUCCCAGUAGCCGC; Antisense strand given in DNA and RNA notation, chemistry not given here; one strand in two spellings)”, for which, in data set [1], the “mRNA knockdown … 0.1 nM” value is given as “+ (50-70% mRNA knockdown)” and the “mRNA knockdown of transporter gene target transcript, 1 nM” value is given as “++ (70-90% mRNA knockdown)”. Besides, the “Growth Inhibition in A549 cells” value with A549 cells is on record as “− (no growth inhibition)”.

As for “SEQ ID NO: 4907: siRNA targeting SLC3A2 (4F2hc) (chain 1 TTTGTTGGATTCGAGTAGGCTCAGG; chain 2 UUUGUUGGAUUCGAGUAGGCUCAGG; Antisense strand given in DNA and RNA notation, chemistry not given here; one strand in two spellings)”, in data set [1], the “mRNA knockdown … 0.1 nM” value is listed as “− (<50% mRNA knockdown)” and the “mRNA knockdown of transporter gene target transcript, 1 nM” value is listed as “− (<50% mRNA knockdown)”. For the same substance, the “Growth Inhibition in A549 cells” value in the data set with A549 cells is “− (no growth inhibition)”.

With “SEQ ID NO: 4908: siRNA targeting SLC3A2 (4F2hc) (chain 1 AAGTTGAGCCGGCAAGAAGGAAGTC; chain 2 AAGUUGAGCCGGCAAGAAGGAAGUC; Antisense strand given in DNA and RNA notation, chemistry not given here; one strand in two spellings)”, in data set [1], the “mRNA knockdown … 0.1 nM” value was “− (<50% mRNA knockdown)” and the “mRNA knockdown of transporter gene target transcript, 1 nM” value is recorded as “+ (50-70% mRNA knockdown)”. Further, in the data set on A549 cells, the “Growth Inhibition in A549 cells” value is reported as “++ (inhibits by at least 75%)”.

On to “SEQ ID NO: 4909: siRNA targeting SLC3A2 (4F2hc) (chain 1 AAGAGCATCAGCTGGTAGAGTCGGA; chain 2 AAGAGCAUCAGCUGGUAGAGUCGGA; Antisense strand given in DNA and RNA notation, chemistry not given here; one strand in two spellings)”, for which, in data set [1], the “mRNA knockdown … 0.1 nM” value is listed as “+ (50-70% mRNA knockdown)” and the “mRNA knockdown of transporter gene target transcript, 1 nM” value was “++ (70-90% mRNA knockdown)”. Further, the “Growth Inhibition in A549 cells” value in the data set with A549 cells is on record as “− (no growth inhibition)”.

“SEQ ID NO: 4910: siRNA targeting SLC5A6 (SMVT1) (chain 1 AAGGCAAGGCCTCTGGAAAGCATGA; chain 2 AAGGCAAGGCCUCUGGAAAGCAUGA; Antisense strand given in DNA and RNA notation, chemistry not given here; one strand in two spellings)”: in data set [1], the “mRNA knockdown … 0.1 nM” value is on record as “− (<50% mRNA knockdown)” and the “mRNA knockdown of transporter gene target transcript, 1 nM” value was “+ (50-70% mRNA knockdown)”. The “Growth Inhibition in A549 cells” value in the data set on A549 cells is “− (no growth inhibition)”.

Turning to “SEQ ID NO: 4911: siRNA targeting SLC5A6 (SMVT1) (chain 1 AATGACGGAGCATAGAGCACAACTC; chain 2 AAUGACGGAGCAUAGAGCACAACUC; Antisense strand given in DNA and RNA notation, chemistry not given here; one strand in two spellings)”, in data set [1], the “mRNA knockdown … 0.1 nM” value is on record as “++ (70-90% mRNA knockdown)” and the “mRNA knockdown of transporter gene target transcript, 1 nM” value is on record as “++ (70-90% mRNA knockdown)”. In the data set with A549 cells, the “Growth Inhibition in A549 cells” value was “− (no growth inhibition)”.

Take “SEQ ID NO: 4912: siRNA targeting SLC5A6 (SMVT1) (chain 1 ACCAGTGTCTGGAACACATCTGTCC; chain 2 ACCAGUGUCUGGAACACAUCUGUCC; Antisense strand given in DNA and RNA notation, chemistry not given here; one strand in two spellings)”: in data set [1], the “mRNA knockdown … 0.1 nM” value is “+ (50-70% mRNA knockdown)” and the “mRNA knockdown of transporter gene target transcript, 1 nM” value is listed as “+ (50-70% mRNA knockdown)”. For the same substance, in the data set on A549 cells, the “Growth Inhibition in A549 cells” value is “− (no growth inhibition)”.

For the substance “SEQ ID NO: 4913: siRNA targeting SLC19A2 (ThTr1) (chain 1 AATACAAGGAGACGGTCTGGCTTGG; chain 2 AAUACAAGGAGACGGUCUGGCUUGG; Antisense strand given in DNA and RNA notation, chemistry not given here; one strand in two spellings)”, in data set [1], the “mRNA knockdown … 0.1 nM” value was “++ (70-90% mRNA knockdown)” and the “mRNA knockdown of transporter gene target transcript, 1 nM” value is reported as “++ (70-90% mRNA knockdown)”. In the data set with A549 cells, the “Growth Inhibition in A549 cells” value was “− (no growth inhibition)”.

As to “SEQ ID NO: 4916: siRNA targeting SLC23A2 (SVCT2) (chain 1 AATACTAGGAATATTGTCAGCATGG; chain 2 AAUACUAGGAAUAUUGUCAGCAUGG; Antisense strand given in DNA and RNA notation, chemistry not given here; one strand in two spellings)”, in data set [1], the “mRNA knockdown … 0.1 nM” value is “++ (70-90% mRNA knockdown)” and the “mRNA knockdown of transporter gene target transcript, 1 nM” value is reported as “++ (70-90% mRNA knockdown)”. In addition, the “Growth Inhibition in A549 cells” value in the data set on A549 cells is “− (no growth inhibition)”.

Consider “SEQ ID NO: 4917: siRNA targeting SLC23A2 (SVCT2) (chain 1 AACAGCTGTAACTTGTACGCAGTCC; chain 2 AACAGCUGUAACUUGUACGCAGUCC; Antisense strand given in DNA and RNA notation, chemistry not given here; one strand in two spellings)”, for which, in data set [1], the “mRNA knockdown … 0.1 nM” value was “++ (70-90% mRNA knockdown)” and the “mRNA knockdown of transporter gene target transcript, 1 nM” value was “++ (70-90% mRNA knockdown)”. Further, the “Growth Inhibition in A549 cells” value in the data set on A549 cells is on record as “− (no growth inhibition)”.

Regarding “SEQ ID NO: 4918: siRNA targeting SLC23A2 (SVCT2) (chain 1 AATCCAAGCACAAAGAGGTTCCGGG; chain 2 AAUCCAAGCACAAAGAGGUUCCGGG; Antisense strand given in DNA and RNA notation, chemistry not given here; one strand in two spellings)”, in data set [1], the “mRNA knockdown … 0.1 nM” value is “++ (70-90% mRNA knockdown)” and the “mRNA knockdown of transporter gene target transcript, 1 nM” value is on record as “++ (70-90% mRNA knockdown)”. Also, in the data set on A549 cells, the “Growth Inhibition in A549 cells” value is on record as “− (no growth inhibition)”.

On to “SEQ ID NO: 4919: siRNA targeting SLC9A1 (NHE1) (chain 1 AAACTCCTCAAAGAGGTGATACAGG; chain 2 AAACUCCUCAAAGAGGUGAUACAGG; chemistry not given here; one strand in two spellings)”, for which, in data set [1], the “mRNA knockdown … 0.1 nM” value is recorded as “++ (70-90% mRNA knockdown)” and the “mRNA knockdown of transporter gene target transcript, 1 nM” value is recorded as “++ (70-90% mRNA knockdown)”. Also, in the data set with A549 cells, the “Growth Inhibition in A549 cells” value is on record as “+ (inhibits by at least 50%)”.

For the substance “SEQ ID NO: 4920: siRNA targeting SLC9A1 (NHE1) (chain 1 TCAGGTAGTTGTTGATCTTCTGCTC; chain 2 UCAGGUAGUUGUUGAUCUUCUGCUC; chemistry not given here; one strand in two spellings)”, in data set [1], the “mRNA knockdown … 0.1 nM” value is given as “++ (70-90% mRNA knockdown)” and the “mRNA knockdown of transporter gene target transcript, 1 nM” value is reported as “++ (70-90% mRNA knockdown)”. Further, the “Growth Inhibition in A549 cells” value in the data set with A549 cells is “− (no growth inhibition)”.

As for “SEQ ID NO: 4921: siRNA targeting SLC9A1 (NHE1) (chain 1 ATCAGTGACGGAATGATTAACAGGG; chain 2 AUCAGUGACGGAAUGAUUAACAGGG; chemistry not given here; one strand in two spellings)”, in data set [1], the “mRNA knockdown … 0.1 nM” value is “++ (70-90% mRNA knockdown)” and the “mRNA knockdown of transporter gene target transcript, 1 nM” value is on record as “++ (70-90% mRNA knockdown)”. Also, the “Growth Inhibition in A549 cells” value with A549 cells is on record as “− (no growth inhibition)”.

As for “SEQ ID NO: 4922: siRNA targeting SLC16A1 (MCT1) (chain 1 ATAGGTAGTGGATAAAGGTGCTAGC; chain 2 AUAGGUAGUGGAUAAAGGUGCUAGC; chemistry not given here; one strand in two spellings)”, in data set [1], the “mRNA knockdown … 0.1 nM” value is “+ (50-70% mRNA knockdown)”; the “mRNA knockdown of transporter gene target transcript, 1 nM” value is “++ (70-90% mRNA knockdown)”; the “mRNA knockdown of transporter gene target transcript, 10 nM” value was “+++ (>90% mRNA knockdown)”. The “Growth Inhibition in A549 cells” value in the data set with A549 cells was “+ (inhibits by at least 50%)”.

“SEQ ID NO: 4923: siRNA targeting SLC16A1 (MCT1) (chain 1 AAATAATTAGGACGACGCCACATGC; chain 2 AAAUAAUUAGGACGACGCCACAUGC; chemistry not given here; one strand in two spellings)”: in data set [1], the “mRNA knockdown … 0.1 nM” value is given as “+ (50-70% mRNA knockdown)”; the “mRNA knockdown of transporter gene target transcript, 1 nM” value was “++ (70-90% mRNA knockdown)”; the “mRNA knockdown of transporter gene target transcript, 10 nM” value is listed as “+++ (>90% mRNA knockdown)”. Moreover, the “Growth Inhibition in A549 cells” value with A549 cells was “− (no growth inhibition)”.

The record behind these values is patent US20080145313A1, “Compositions and Methods for the Treatment and Prevention of Neoplastic Disorders” (Genesis Research & Development Corporation Limited, priority 2006, published 2008).
